# US5688936A, “Vesicle membrane transport proteins” (priority 1993, dated 1997)
# Read-outs that look alike come from different tables or passages of the source.
# How the values were obtained:
# [1] = molecular target: T1, chromaffin granule amine transport protein (Rattus norvegicus, UniProt Q01818); test: Quantitative [3H]dopamine transport assay with mpp^res CHO cell homogenate; format: biochemical; settings: for rank order for affinity of substrates: quantitative assay
# T1 sequence (Q01818 1-521): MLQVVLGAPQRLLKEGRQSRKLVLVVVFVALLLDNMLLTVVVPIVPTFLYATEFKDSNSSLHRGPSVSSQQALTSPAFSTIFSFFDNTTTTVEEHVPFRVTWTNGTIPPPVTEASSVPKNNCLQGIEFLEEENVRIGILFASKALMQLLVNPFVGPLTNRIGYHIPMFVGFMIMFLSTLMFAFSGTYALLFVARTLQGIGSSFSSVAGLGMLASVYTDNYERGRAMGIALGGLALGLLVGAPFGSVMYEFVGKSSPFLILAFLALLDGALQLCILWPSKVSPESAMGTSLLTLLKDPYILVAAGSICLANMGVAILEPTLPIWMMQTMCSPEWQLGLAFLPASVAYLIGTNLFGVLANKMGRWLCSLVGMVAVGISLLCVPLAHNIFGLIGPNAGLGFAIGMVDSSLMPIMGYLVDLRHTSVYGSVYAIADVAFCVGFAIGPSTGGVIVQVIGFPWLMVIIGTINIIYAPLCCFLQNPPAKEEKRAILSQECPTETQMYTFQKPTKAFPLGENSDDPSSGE
# Experimental: The quantity of label bound is measured after filtration of the assay mixture. Preferably, the label is a radioactive label. […] This can be done by standard graphic kinetic techniques such as the Lineweaver-Burke plot.
# Incubation was performed at 29° C. for the time period indicated (from 2 minutes to 30 minutes). The assay was terminated by dilution in cold assay buffer followed by filtration through 0.2 μm Supor™ 200 membranes (Gelman, Ann Arbor, Mich.) and the bound radioactivity was measured. The cells used for the quantitative assay are selected in MPP^+ or screened with antibody to ensure that they express the transporter at high levels, as it is difficult to measure activity in this assay at low levels of transporter expression.
# The quantitative transport test was performed as described above on wild-type CHO cells and mpp^res CHO cells.
# [2] = molecular target: T1, chromaffin granule amine transport protein; test: cell-based; format: cell-based; settings: for Dopamine Fluorescence (mpp^res CHO): untreated control ++++, 12 hour dopamine loading; for inhibition of vesicular amine uptake/transport (fluorescence assay, in words): concentrations of Table 1
# Experimental: Uptake and cellular compartmentalization of loaded dopamine were performed by growing cells on poly-lysine-coated glass coverslips. […] The cells were then washed three times in 0.1M sodium phosphate, pH 7.4, and incubated at 4° C. in 2% glyoxylic acid/0.5 mg% MgCl2, pH 4.9-5.0 for three minutes as described by de la Torre, J. Neurosci. Meth. 3:1-5 (1980). Briefly, excess solution is wiped off the bottom and edges of the slide using absorbent paper, taking care not to touch the section. The coverslips were then drained thoroughly, dried in air at 45° C. heated to 80° C. for five minutes, inverted over mineral oil on glass slides and examined under fluorescence using the appropriate filters as described by Knigge et al., Brain Res. 120:393-405 (1977). Briefly, the preparations were infiltrated with warm immersion oil and examined in a Leitz MPV2 microspectrofluorometer equipped with Schoffel excitation and emission grating monochromators, photomultipliers, and ratio computing circuitry. Cells were scanned with either monochromatic light (370 nm) or narrow band excitation (S405, BG3) light for the purpose of identifying fluorescence within cells. Ploem illumination was used in combination with a X 63 or X 100 oil immersion objective.
# Dopamine-loaded fluorescence was carried out as described in Example 1. […] Glyoxylic-acid-induced fluorescence was used to determine the intracellular distribution as described above in Example 1. The procedures were the same as described in Example 1 however a pure cDNA clone encoding the vesicle membrane transport protein, selected in the presence of MPP^+, obtained as described herein, was used rather than the primary transformant. […]
# The effects of various pharmacologic agents were tested to determine whether the properties of the protein encoded by the mpp^res cDNA corresponded with those expected for the chromaffin granule amine transport protein. […] The cells were pre-incubated in Krebs-Ringer buffer containing 1 μM pargyline and the dose of the drug indicated for 15 minutes. 25 nM [^3 H]-dopamine was then added in the same buffer and after incubation at 37° C. for one hour, the cells were washed in cold Krebs-Ringer buffer, lysed and counted in Ecolite (ICN) as described by Greene and Rein, Brain Res. 129:247-263 (1978). Values were determined from three separate wells and the mean was expressed as percent of control uptake±standard deviation. […] The dose required to inhibit maximal uptake by 50%, Ki, was estimated from the fluorescence data using a range of concentrations for each agent.
# PC12 cells [3] = test: cells; settings: Rattus norvegicus, PC-12, 1 h, read-out: [^3 H]-Dopamine Uptake (PC12)
# Experimental: The effects of various pharmacologic agents were tested to determine whether the properties of the protein encoded by the mpp^res cDNA corresponded with those expected for the chromaffin granule amine transport protein. […] The cells were pre-incubated in Krebs-Ringer buffer containing 1 μM pargyline and the dose of the drug indicated for 15 minutes. […] Values were determined from three separate wells and the mean was expressed as percent of control uptake±standard deviation.
# wild-type CHO cells = test: MTT cytotoxicity assay in wild-type CHO cells; format: cell-based, Chinese hamster; settings: wild-type CHO, 2-3 days
# Experimental: (§1) Differential susceptibility to the respiratory complex I inhibitors MPP^+ and rotenone was shown by measuring toxicity by measuring general cell dehydrogenase activity with reduction of a tetrazolium dye (MTT) in a spectrophotometric plate assay as described by Hansen et al., J. Immunol. Methods 119:203-210 (1989). Briefly, a stock solution of MTT (3,(4,5-dimethylthiazol-2-yl)2,5-diphenyltetrazolium bromide) was dissolved at a concentration of 5 mg/ml in sterile phosphate buffered saline at room temperature. To each well was added 25 μl of the stock solution. After two hours of incubation at 37° C., 100 μl of extraction buffer (20% w/v of SDS in a solution of 50% each dimethylformamide and demineralized water with the pH adjusted to 4.7 with acetic acid and HCl). After an overnight incubation at 37° C., the optical densities at 570 nm were measured using a multiscanner, employing the extraction buffer as the blank. This assay was carried out in triplicate on 96-well plates (NUNC, Denmark). MPP^+ and rotenone at the concentrations indicated in FIG. 6a and 6b, respectively, was added to wild-type and MPP^+ -resistant CHO cells at approximately 50% confluence, and toxicity was assayed after 2-3 days by measuring general cell dehydrogenase activity with the reduction of the tetrazolium dye MTT (3,(4,5-dimethylthiazol-2-yl)2,5-diphenyl-tetrazolium bromide). After addition of the dye at a final concentration of 1 mg/ml, the cells were incubated for two hours at 37° C. and the formazan product was solubilized in 10% sodium dodecyl sulfate (SDS). The plates were maintained at 37° C. for an additional twenty hours and the optical density was determined in an ELISA plate reader at a test wavelength of 570 nm, a reference wavelength of 630 nm and a calibration setting of 1.99. All determinations were performed in triplicate and expressed as the mean, with the error bars representing standard deviation (FIG. 6a and 6b).
# [4] = tested on: MPP^+ -resistant CHO cells; test: MTT cytotoxicity assay in MPP+-resistant transfected CHO cells; format: cell-based, Chinese hamster
# Experimental: as §1
# To determine whether an alteration in the process of respiration was responsible for the resistance to MPP^+, the effects of other known respiratory inhibitors were examined. […] Thus, if the resistance were due to a change in the site of action, the transfected cells should also show resistance to rotenone. […] However, rotenone is considered to have its selected effect on respiration at relatively low doses, and an additional, less specific effect at higher doses.
# Therefore, the toxicity of MPP^+ to transfected cells in the presence of 1 μM reserpine was examined.
# Untransfected CHO cells = test: Survival/selection of untransfected CHO cells in MPP+; format: cell-based, Chinese hamster; settings: 500 μM
# Experimental: To determine whether the transfer of DNA sequences from PC12 cells into CHO cells could be used to generate stable CHO transformants resistant to MPP^+, it was first necessary to determine the spontaneous rate of resistance under different culture conditions. […] Selection of one million CHO cells at intermediate density (25-50% confluence) in 500 μM MPP^+ gave rise to 5-10 small colonies after one month. However, these cells contained particulate inclusions characteristic of MPP^+ toxicity, and grew very slowly even when maintained at low density. At moderate density, the cells degenerated further and detached from the plate.
# transfected CHO cells = test: Survival/selection/growth of transfected CHO cells in MPP+; format: cell-based, Chinese hamster
# Experimental: Using the above methods, the PC12 cDNA library constructed in the plasmid expression vector CDM8 was transfected into CHO cells. Using the selectable marker RSV- neo (Walker, Weizmann Institute, Israel), […] independent stable transformants were obtained after selection in the neomycin analogue G418 at 400 μg/ml effective dose. These cells were then selected at 40% confluence in 1 mM MPP^+. […] However, at four weeks, a colony of cells without refractile inclusions appeared and rapidly covered the plate. The apparently normal growth of these cells in the presence of 1 mM MPP^+ stands in marked contrast to all of the resistant clones obtained without transfection, which grew very slowly if at all. […] However, at 1 mM MPP^+, the resistant cells did show some toxicity, particularly when the assay was performed at higher cell density.
# To identify the cDNA sequences responsible for conferring resistance to MPP^+, integrated plasmids were rescued from the primary CHO transformant obtained as described above in Example 1. […] The primary MPP^+ -resistant CHO transformant was amplified in culture and following cell lysis in 5M guanidinium isothiocyanate, the high molecular weight DNA prepared by repeated precipitation in isopropanol. After digestion with Not I, which cleaves the CDM8 vector once downstream of the cDNA insertion site as well as at rare eight-nucleotide recognition sites elsewhere in the genome, the DNA was religated and transformed into E. coli by electroporation as described by Stern-Bach et al., J. Biol. Chem. 265:3961-3966 (1990). Four pools of the derived plasmids containing approximately 50 colonies each were transfected into CHO cells and after two days were selected in 1 mM MPP^+. Four weeks later, one pool gave rise to several MPP^+ -resistant colonies, two pools gave rise to 1-2 colonies and the fourth pool and CDM8 vector gave rise to no healthy, resistant colonies. Restriction enzyme analysis of the plasmids in the pool conferring the highest frequency of resistance to MPP^+ indicated three independent clones of 1.0, 1.3 and 2.5 kb. […]
# PC12 cells [5] = settings: cited from earlier work
# chromaffin cells = settings: [3H]-MPP+ accumulated; cited from earlier work
# CHO cells = test: Inhibition of protein synthesis in CHO cells by MPP+
structure (smiles),measurement,setting,value
NCCc1ccc(O)c(O)c1 [dopamine],rank order for affinity of substrates,[1],serotonin>epinephrine>dopamine>norepinephrine
COc1ccc(CCN(C)CCCC(C#N)(c2ccc(OC)c(OC)c2)C(C)C)cc1OC (stereo not drawn) [verapamil],Ki,[2],50 µM
same,Dopamine Fluorescence (mpp^res CHO),[2]; agent 100 μM,0
same,"inhibition of vesicular amine uptake/transport (fluorescence assay, in words)",[2],"inhibited transport, but at high concentrations"
same,activity at 100 µM,PC12 cells [3],21 ± 1%
CNCCCN1c2ccccc2CCc2ccccc21 [desipramine],Ki,"[2]; dose required to inhibit maximal uptake by 50%, estimated from fluorescence data, read-out: Ki (est)",500 µM
NCCc1c[nH]c2ccc(O)cc12 [serotonin],rank order for affinity of substrates,[1],serotonin>epinephrine>dopamine>norepinephrine
N#CC(C#N)=NNc1cccc(Cl)c1 [carbonyl cyanide m-chlorophenylhydrazone],dopamine incorporation by mpp^res cells,[1]; 5 μM,blocked
NC[C@H](O)c1ccc(O)c(O)c1 [norepinephrine],rank order for affinity of substrates,[1],serotonin>epinephrine>dopamine>norepinephrine
"C[n+]1ccc(-c2ccccc2)cc1 [MPP^+, 1-methyl-4-phenylpyridinium]",MPP+ toxicity (MTT assay),wild-type CHO cells,steep dose-response curve
same,MPP+ toxicity (MTT assay),"[4]; resistant cells, 1 mM, particularly at higher cell density",some toxicity
same,MPP+ toxicity (MTT assay),"[4]; resistant clone, 2-3 days",relative lack of toxicity
same,number of resistant colonies from one million CHO cells,"Untransfected CHO cells; 25-50% confluence, after one month",5-10 small colonies
same,cell survival in MPP+,Untransfected CHO cells; high density (more than 75% confluence),all of the cells died within 24 hours
same,cell survival in MPP+,Untransfected CHO cells; low density (less than 25% confluence),"the cells stopped growing, gradually acquiring refractile cytoplasmic inclusions, swelling and eventually detaching from the plate after several weeks"
same,acquired resistance of untransfected CHO cells,Untransfected CHO cells; selection for over two months,little resistance
same,toxicity in library-transfected CHO cells,"transfected CHO cells; 1 mM, 40% confluence",Virtually all of the cells developed toxicity within one week
same,growth of the resistant clone in MPP+,"transfected CHO cells; vs untreated wild-type cells, particularly at higher densities",slightly more slowly
same,PC12 cell death,PC12 cells [5]; 100 μM,death by two weeks
same,PC12 cell death,PC12 cells [5]; 1 mM,cell death by four days
same,toxicity to chromaffin cells,chromaffin cells,relatively little toxicity
same,sensitivity of CHO cells to MPP+ relative to PC12 cells,CHO cells,greater sensitivity to MPP^+ than PC12 cells
same,inhibition of protein synthesis,"CHO cells; over 100 μM, 2-3 days, high density CHO cells",virtually complete inhibition of protein synthesis
CCN(CC)CCCC(C)Nc1ccnc2cc(Cl)ccc12 (stereo not drawn) [chloroquine],Dopamine Fluorescence (mpp^res CHO),[2]; agent 500 μM,0
same,"inhibition of vesicular amine uptake/transport (fluorescence assay, in words)",[2],inhibited vesicular amine uptake
same,activity at 500 µM,PC12 cells [3],17 ± 1%
CNC[C@H](O)c1ccc(O)c(O)c1 [epinephrine],rank order for affinity of substrates,[1],serotonin>epinephrine>dopamine>norepinephrine
